According to ChEMBL document CHEMBL2074038 (J Pharmacol Exp Ther, 2003):

Biological target: ATP-dependent translocase ABCB1 (Homo sapiens, UniProt P08183)
Assay: TP_TRANSPORTER: transepithelial transport in MDR1-expressing LLC-PK1 cells
Assay type: functional, cell-based
Settings: pig

Chain of ATP-dependent translocase ABCB1 (P08183 whole entry): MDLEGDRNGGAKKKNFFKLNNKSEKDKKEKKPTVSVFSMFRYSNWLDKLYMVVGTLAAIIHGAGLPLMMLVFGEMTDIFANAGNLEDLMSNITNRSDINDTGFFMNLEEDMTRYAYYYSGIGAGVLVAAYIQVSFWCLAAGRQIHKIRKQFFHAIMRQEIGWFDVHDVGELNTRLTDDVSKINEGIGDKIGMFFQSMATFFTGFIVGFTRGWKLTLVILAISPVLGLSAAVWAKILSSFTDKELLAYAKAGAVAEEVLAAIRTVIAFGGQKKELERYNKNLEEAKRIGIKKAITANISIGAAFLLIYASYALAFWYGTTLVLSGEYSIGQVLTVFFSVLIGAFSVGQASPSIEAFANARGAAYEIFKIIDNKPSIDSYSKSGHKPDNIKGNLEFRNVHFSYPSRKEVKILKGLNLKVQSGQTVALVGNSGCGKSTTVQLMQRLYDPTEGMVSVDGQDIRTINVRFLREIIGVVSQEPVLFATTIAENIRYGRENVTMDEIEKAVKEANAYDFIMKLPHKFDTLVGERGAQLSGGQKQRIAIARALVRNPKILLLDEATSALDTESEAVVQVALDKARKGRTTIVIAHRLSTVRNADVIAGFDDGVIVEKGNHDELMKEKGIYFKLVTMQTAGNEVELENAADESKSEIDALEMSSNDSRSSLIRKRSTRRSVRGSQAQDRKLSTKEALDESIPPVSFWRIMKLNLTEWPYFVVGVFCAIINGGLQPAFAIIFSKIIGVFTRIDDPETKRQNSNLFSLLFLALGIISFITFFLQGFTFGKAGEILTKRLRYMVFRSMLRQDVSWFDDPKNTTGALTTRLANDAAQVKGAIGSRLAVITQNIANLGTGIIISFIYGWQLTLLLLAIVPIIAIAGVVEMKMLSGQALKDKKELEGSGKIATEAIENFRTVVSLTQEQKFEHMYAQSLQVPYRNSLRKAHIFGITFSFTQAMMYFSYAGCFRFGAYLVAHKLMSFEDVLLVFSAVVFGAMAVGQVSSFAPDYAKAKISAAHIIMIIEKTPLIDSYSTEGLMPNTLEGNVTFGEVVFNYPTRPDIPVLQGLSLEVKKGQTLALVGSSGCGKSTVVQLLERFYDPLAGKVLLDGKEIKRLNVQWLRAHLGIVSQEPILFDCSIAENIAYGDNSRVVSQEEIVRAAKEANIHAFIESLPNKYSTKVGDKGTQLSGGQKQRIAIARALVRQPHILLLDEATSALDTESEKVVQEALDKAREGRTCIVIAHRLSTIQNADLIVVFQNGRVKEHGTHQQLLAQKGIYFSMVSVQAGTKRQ

| Activity | SMILES |
| --- | --- |
| substrate [+] | CCn1nc(Cc2ccccc2)cc1C1CCN(Cc2ccc(C3(N(C)[C@@H](C(=O)O)C(C)C)CCCC3)cc2F)CC1 |
| substrate [+] | CC[C@]1(O)C[C@@H]2CN(CCc3c([nH]c4ccccc34)[C@@](C(=O)OC)(c3cc4c(cc3OC)N(C)[C@H]3[C@@](O)(C(=O)OC)[C@H](OC(C)=O)[C@]5(CC)C=CCN6CC[C@]43[C@@H]65)C2)C1 [VINBLASTINE] |
